Bounds are passed on as bounds.

One may read the IC50 as the concentration needed to halve the response being measured.

The target of the assay is T1, human TRPV3 (Homo sapiens, UniProt Q8NET8).
T1 construct: expressed in transfected cells; host or cells: HEK293
T1 sequence (Q8NET8 1-790): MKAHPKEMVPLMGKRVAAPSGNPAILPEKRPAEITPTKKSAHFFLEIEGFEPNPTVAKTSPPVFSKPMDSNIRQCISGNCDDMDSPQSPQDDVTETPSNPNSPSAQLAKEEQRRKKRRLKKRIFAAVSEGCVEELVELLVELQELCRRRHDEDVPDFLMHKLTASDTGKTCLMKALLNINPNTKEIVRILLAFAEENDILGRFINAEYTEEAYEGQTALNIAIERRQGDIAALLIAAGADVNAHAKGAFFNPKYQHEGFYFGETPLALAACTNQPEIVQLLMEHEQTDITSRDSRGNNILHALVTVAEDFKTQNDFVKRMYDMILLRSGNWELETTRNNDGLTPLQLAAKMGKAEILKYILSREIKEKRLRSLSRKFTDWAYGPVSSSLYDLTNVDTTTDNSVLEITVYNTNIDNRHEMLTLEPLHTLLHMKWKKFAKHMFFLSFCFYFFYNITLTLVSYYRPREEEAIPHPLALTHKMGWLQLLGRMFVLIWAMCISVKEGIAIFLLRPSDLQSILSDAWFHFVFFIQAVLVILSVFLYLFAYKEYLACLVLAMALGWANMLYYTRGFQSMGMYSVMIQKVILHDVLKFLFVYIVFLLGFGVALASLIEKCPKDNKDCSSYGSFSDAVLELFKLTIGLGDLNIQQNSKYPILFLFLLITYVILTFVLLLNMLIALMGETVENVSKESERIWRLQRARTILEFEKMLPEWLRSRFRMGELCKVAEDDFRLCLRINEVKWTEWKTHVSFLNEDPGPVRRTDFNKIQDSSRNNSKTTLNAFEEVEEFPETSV
In words: Calcium flux assay (FLIPR TETRA), recombinant HEK293 cells expressing TRPV3, 2-APB response. The format is cell-based. As to conditions: 2-APB at its EC80. An outline of the steps:
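Response is the peak fluorescence increase over baseline, as a percentage of the compound-free response to 2-APB at EC80. Calcium flux recorded on FLIPR TETRA in stable human or mouse TRPV3 HEK293 cells after 90–120 min Calcium-4 dye loading.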

Take `COc1ncnc(OC)c1C(=O)Nc1nc(C(F)(F)F)c(-c2cccc(CC#N)n2)s1` [Example 155, N-{5-[6-(cyanomethyl)pyridin-2-yl]-4-(trifluoromethyl)-1,3-thiazol-2-yl}-4,6-dimethoxypyrimidine-5-carboxamide]: the IC50 was 100 to 500 nM. The same measure for `COc1ncnc(OC)c1C(=O)Nc1nc(C(F)(F)F)c(CN2CCCC2)s1` [Example 49, 4,6-dimethoxy-N-[5-(pyrrolidin-1-ylmethyl)-4-(trifluoromethyl)-1,3-thiazol-2-yl]pyrimidine-5-carboxamide]: 500 to 1000 nM; for `COc1ncnc(OC)c1C(=O)Nc1nc(-c2ccc(C(F)(F)F)cn2)c(/C(C)=N/O)s1` [Example 88, N-{5-[(1E)-N-hydroxyethanimidoyl]-4-[5-(trifluoromethyl)pyridin-2-yl]-1,3-thiazol-2-yl}-4,6-dimethoxypyrimidine-5-carboxamide]: 50 to 100 nM; for `COc1ncnc(OC)c1C(=O)Nc1nc(C(F)(F)F)c(C(C)(O)c2ccccc2)s1` (stereo not shown) [Example 122, N-[5-(1-hydroxy-1-phenylethyl)-4-(trifluoromethyl)-1,3-thiazol-2-yl]-4,6-dimethoxypyrimidine-5-carboxamide]: less than 50 nM. As to `COc1ncnc(OC)c1C(=O)Nc1nc(C(F)(F)F)c(-c2ccnc(N3CCOCC3)c2)s1` [Example 182, 4,6-dimethoxy-N-{5-[2-(morpholin-4-yl)pyridin-4-yl]-4-(trifluoromethyl)-1,3-thiazol-2-yl}pyrimidine-5-carboxamide], the IC50 was in the range of 50 to 100 nM. With `COc1ncnc(OC)c1C(=O)Nc1nc(C(F)(F)F)c(-c2ccc(N3CCOCC3)nc2)s1` [Example 23, 4,6-dimethoxy-N-{5-[6-(morpholin-4-yl)pyridin-3-yl]-4-(trifluoromethyl)-1,3-thiazol-2-yl}pyrimidine-5-carboxamide], the half-maximal inhibitory concentration (IC50) lay in the range of 100 to 500 nM.

Turning to `COc1ncnc(OC)c1C(=O)Nc1nc(C(F)(F)F)c(-c2cncc(OC(C)C)c2)s1` [Example 156, 4,6-dimethoxy-N-{5-[5-(propan-2-yloxy)pyridin-3-yl]-4-(trifluoromethyl)-1,3-thiazol-2-yl}pyrimidine-5-carboxamide], the half-maximal inhibitory concentration (IC50) is less than 50 nM. Regarding `COc1ncnc(OC)c1C(=O)Nc1nc(C(F)(F)F)c(-c2c[nH]c3cc(C#N)ccc23)s1` [Example 44, N-[5-(6-cyano-1H-indol-3-yl)-4-(trifluoromethyl)-1,3-thiazol-2-yl]-4,6-dimethoxypyrimidine-5-carboxamide], the IC50 is 100 to 500 nM. In the case of `COc1ncnc(OC)c1C(=O)Nc1nc(C(F)(F)F)cs1` [Example 3, 4,6-dimethoxy-N-[4-(trifluoromethyl)-1,3-thiazol-2-yl]pyrimidine-5-carboxamide] it was 100 to 500 nM; in that of `COc1ncnc(OC)c1C(=O)Nc1nc(C(F)(F)F)c(C2CC2)s1` [Example 37, N-[5-cyclopropyl-4-(trifluoromethyl)-1,3-thiazol-2-yl]-4,6-dimethoxypyrimidine-5-carboxamide], less than 50 nM; in that of `CO/N=C(/C)c1sc(NC(=O)c2c(OC)ncnc2OC)nc1C(F)(F)F` [Example 136, 4,6-dimethoxy-N-{5-[(1Z)—N-methoxyethanimidoyl]-4-(trifluoromethyl)-1,3-thiazol-2-yl}pyrimidine-5-carboxamide], less than 50 nM. In the case of `COCC#Cc1sc(NC(=O)c2c(OC)ncnc2OC)nc1C(F)(F)F` [Example 15, 4,6-dimethoxy-N-[5-(3-methoxyprop-1-yn-1-yl)-4-(trifluoromethyl)-1,3-thiazol-2-yl]pyrimidine-5-carboxamide] it was less than 50 nM; in that of `COc1ncnc(OC)c1C(=O)Nc1nc(C(F)(F)F)c(-c2ccncc2C#N)s1` [Example 24, N-[5-(3-cyanopyridin-4-yl)-4-(trifluoromethyl)-1,3-thiazol-2-yl]-4,6-dimethoxypyrimidine-5-carboxamide], 100 to 500 nM; in that of `COc1ncnc(OC)c1C(=O)Nc1nc(C(F)(F)F)c(C2CCCO2)s1` (stereo not shown) [Example 144, 4,6-dimethoxy-N-[5-(tetrahydrofuran-2-yl)-4-(trifluoromethyl)-1,3-thiazol-2-yl]pyrimidine-5-carboxamide], 50 to 100 nM. As for `COc1ncnc(OC)c1C(=O)Nc1nc(C(C)(C)C)c(C#N)s1` [Example 189, N-(4-tert-butyl-5-cyano-1,3-thiazol-2-yl)-4,6-dimethoxypyrimidine-5-carboxamide], the IC50 is less than 50 nM. In the case of `COc1ncnc(OC)c1C(=O)Nc1nc(C)c(C)s1` [Example 9, N-(4,5-dimethyl-1,3-thiazol-2-yl)-4,6-dimethoxypyrimidine-5-carboxamide], the IC50 was greater than 1000 nM.

With `COc1ncnc(OC)c1C(=O)Nc1nc(C(F)(F)F)c(/C(=N/O)c2ccc(F)cn2)s1` [Example 132, N-{5-[(E)-(5-fluoropyridin-2-yl)(hydroxyimino)methyl]-4-(trifluoromethyl)-1,3-thiazol-2-yl}-4,6-dimethoxypyrimidine-5-carboxamide], the IC50 was less than 50 nM.

In the case of `COc1ncnc(OC)c1C(=O)Nc1nc(C(F)(F)F)c(C(C)=O)s1` [Example 133, N-[5-acetyl-4-(trifluoromethyl)-1,3-thiazol-2-yl]-4,6-dimethoxypyrimidine-5-carboxamide], the IC50 lay in the range of 100 to 500 nM. In the case of `COc1ncnc(OC)c1C(=O)Nc1nc(C(F)(F)F)c(-c2cccc(C3(C#N)COC3)n2)s1` [Example 154, N-{5-[6-(3-cyanooxetan-3-yl)pyridin-2-yl]-4-(trifluoromethyl)-1,3-thiazol-2-yl}-4,6-dimethoxypyrimidine-5-carboxamide] it was 50 to 100 nM; in that of `COc1ncnc(OC)c1C(=O)Nc1nc(C(F)(F)F)c(CN2CC[C@H](F)C2)s1` [Example 57, N-[5-{[(3 S)-3-fluoropyrrolidin-1-yl]methyl}-4-(trifluoromethyl)-1,3-thiazol-2-yl]-4,6-dimethoxypyrimidine-5-carboxamide], 100 to 500 nM; in that of `COc1ncnc(OC)c1C(=O)Nc1nc(C(F)(F)F)c(CN(C)CC(C)C)s1` [Example 54, 4,6-dimethoxy-N-[5-{[methyl(2-methylpropyl)amino]methyl}-4-(trifluoromethyl)-1,3-thiazol-2-yl]pyrimidine-5-carboxamide], less than 50 nM. The same measure for `COc1ncnc(OC)c1C(=O)Nc1nc(-c2ccc(C(F)(F)F)cn2)cs1` [Example 73, 4,6-dimethoxy-N-{4-[5-(trifluoromethyl)pyridin-2-yl]-1,3-thiazol-2-yl}pyrimidine-5-carboxamide]: less than 50 nM; for `CO/N=C(\c1ccccc1)c1sc(NC(=O)c2c(OC)ncnc2OC)nc1C(F)(F)F` [Example 125, 4,6-dimethoxy-N-{5-[(E)-(methoxyimino)(phenyl)methyl]-4-(trifluoromethyl)-1,3-thiazol-2-yl}pyrimidine-5-carboxamide]: less than 50 nM. Turning to `COc1ncnc(OC)c1C(=O)Nc1nc(-c2ccc(C(F)F)cn2)cs1` [Example 94, N-{4-[5-(difluoromethyl)pyridin-2-yl]-1,3-thiazol-2-yl}-4,6-dimethoxypyrimidine-5-carboxamide], the 50% inhibitory concentration (IC50) is 100 to 500 nM. In the case of `COc1ncnc(OC)c1C(=O)Nc1nc(C(F)(F)F)c(/C(=N/O)c2ccccc2)s1` [Example 126, N-{5-[(E)-(hydroxyimino)(phenyl)methyl]-4-(trifluoromethyl)-1,3-thiazol-2-yl}-4,6-dimethoxypyrimidine-5-carboxamide] it was less than 50 nM.

These data come from patent US20180243298A1, “TRPV3 MODULATORS” (AbbVie Inc., priority 2015, published 2018).
